The nature of this data set: Cytotoxicity against human 16-HBE cells by CCK8 assay. As to conditions: 16hbe14o-. In general terms: Formazan colour is commonly taken as a measure of viable cells.

The record followed here is ChEMBL document CHEMBL6182879, “Synthesis and biological evaluation of novel 4-Arylaminoquinolines derivatives as EGFR/HDAC inhibitors” (Bioorg Med Chem Lett, 2025).

As usually defined, the IC50 is the point on the concentration scale where inhibition reaches its midpoint. The low end stands for higher potency, the high end for lower potency. Molecule `O=C(CCCCCCC(=O)Nc1ccccc1)NO` [VORINOSTAT] showed an IC50 of 50.6 µM.
